Data on 2 compounds can be found in patent publication US12138250B2, “Formulations of 6-(2-hydroxy-2-methylpropoxy)-4-(6-(6-((6-methoxypyridin-3-yl)methyl)-3,6-diazabicyclo[3.1.1]heptan-3-yl)pyridin-3-yl)pyrazolo[1,5-a]pyridine-3-carbonitrile” (Loxo Oncology, Inc., priority 2017, dated 2024).

Like-named read-outs stand apart in the source and are kept apart here.

The conditions of data set [1]: salt screen, succinic acid.
The nature of data set [2]: Gravimetric Vapor Sorption (GVS). Format: physicochemical. As to the method:
Approximately 10-20 mg of sample was placed into a mesh vapor sorption balance pan and loaded into an IGASorp Moisture Sorption Analyzer balance by Hiden Analytical. The sample was subjected to a ramping profile from 40-90% RH at 10% increments, maintaining the sample at each step until a stable weight had been achieved (98% step completion). After completion of the sorption cycle, the sample was dried using the same procedure to 0% RH, and finally taken back to the starting point of 40% RH. The weight change during the sorption/desorption cycles were plotted, allowing for the hygroscopic nature of the sample to be determined.

For the compound `O=C(O)CCC(=O)O` [Succinic acid], the XRPD post-cycling entry in data set [1] (IPA/water (10%)) and in data set [1] (MeCN/water (20%)) was “Form 8” throughout. The XRPD post-stability entry in data set [1] (MeCN/water (20%), overnight 40° C. and 75% RH) is “Form 8”.
With `COc1ccc(CN2C3CC2CN(c2ccc(-c4cc(OCC(C)(C)O)cn5ncc(C#N)c45)cn2)C3)cn1` [Form 1], in data set [2], the “form or crystallinity by XRPD post-GVS analysis” value is “No change in form” and the “hygroscopicity by GVS” value is on record as “moderately hygroscopic”. Further, the “weight increase by GVS” value in data set [2] (at 90% RH) is on record as 2.6%.
